For 19 compounds, AC50 results are on record in patent US20230365592A1 (Agios Pharmaceuticals, Inc., priority 2022, published 2023).

Each structure is given as a SMILES string.

By AC50 is commonly meant the concentration giving half of the maximal activity seen.

The target in the assay is T1, human PAH with the R408W mutation (Homo sapiens, UniProt P00439, R408W).
T1 construct: expressed in transfected cells
T1 sequence (P00439 1-452 R408W): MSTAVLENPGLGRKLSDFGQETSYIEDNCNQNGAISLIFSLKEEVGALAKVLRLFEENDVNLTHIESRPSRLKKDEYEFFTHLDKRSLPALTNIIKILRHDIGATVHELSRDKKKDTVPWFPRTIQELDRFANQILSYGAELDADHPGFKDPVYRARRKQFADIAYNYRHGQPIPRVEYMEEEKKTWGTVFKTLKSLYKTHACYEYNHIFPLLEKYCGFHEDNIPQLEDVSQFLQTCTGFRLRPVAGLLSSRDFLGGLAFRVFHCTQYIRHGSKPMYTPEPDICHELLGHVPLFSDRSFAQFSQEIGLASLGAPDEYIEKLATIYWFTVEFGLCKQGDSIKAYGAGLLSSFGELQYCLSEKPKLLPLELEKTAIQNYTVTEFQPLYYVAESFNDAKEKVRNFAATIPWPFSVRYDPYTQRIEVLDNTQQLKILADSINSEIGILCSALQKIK
Nature of the assay: Cell Based Phenylalanine Flux Assay.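 Further: after compound treatment, cells received sepiapterin plus isotope-labelled Phenylalanine for 4 hours, then labelled Tyrosine in the medium was quantified, 10-point 2-fold dilution series run in duplicate.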 The following applies: A375 cells expressing human R408W PAH; 24 hrs compound incubation; 13C-Tyrosine by LC-MS; average where tested multiple times; read-out: AC50.

With `CC1(c2nnc(C(=O)N3CCc4[nH]cnc4[C@H]3c3cc4c(Cl)cccn4n3)o2)CC1` [Example 1321, (S)-(4-(4-chloropyrazolo[1,5-a]pyridin-2-yl)-6,7-dihydro-1H-imidazo[4,5-c]pyridin-5(4H)-yl)(5-(1-methylcyclopropyl)-1,3,4-oxadiazol-2-yl)methanone], the AC50 was less than 500 nM.

Consider `Cc1cccn2nc([C@H]3c4nc[nH]c4CCN3C(=O)c3nnc(C4(C)CC4)o3)cc12` [Example 1322, (R)-(5-(1-methylcyclopropyl)-1,3,4-oxadiazol-2-yl)(4-(4-methylpyrazolo[1,5-a]pyridin-2-yl)-6,7-dihydro-1H-imidazo[4,5-c]pyridin-5(4H)-yl)methanone], for which the AC50 was in the range of 1000 to 5000 nM.

Regarding `Cc1cccn2nc([C@@H]3c4nc[nH]c4CCN3C(=O)c3nnc(C4(C)CC4)o3)cc12` [Example 1323, (S)-(5-(1-methylcyclopropyl)-1,3,4-oxadiazol-2-yl)(4-(4-methylpyrazolo[1,5-a]pyridin-2-yl)-6,7-dihydro-1H-imidazo[4,5-c]pyridin-5(4H)-yl)methanone], the AC50 is less than 500 nM.

In the case of `CC1(c2nnc(C(=O)N3CCc4[nH]cnc4[C@@H]3c3cc4c(C(F)(F)F)cccn4n3)o2)CC1` [Example 1324, (R)-(5-(1-methylcyclopropyl)-1,3,4-oxadiazol-2-yl)(4-(4-(trifluoromethyl)pyrazolo[1,5-a]pyridin-2-yl)-6,7-dihydro-1H-imidazo[4,5-c]pyridin-5(4H)-yl)methanone], the AC50 was in the range of 1000 to 5000 nM.

As to `CC1(c2nnc(C(=O)N3CCc4[nH]cnc4[C@H]3c3cc4c(C(F)(F)F)cccn4n3)o2)CC1` [Example 1325, (S)-(5-(1-methylcyclopropyl)-1,3,4-oxadiazol-2-yl)(4-(4-(trifluoromethyl)pyrazolo[1,5-a]pyridin-2-yl)-6,7-dihydro-1H-imidazo[4,5-c]pyridin-5(4H)-yl)methanone], the AC50 was less than 500 nM.

Regarding `Cc1ncccc1-c1nnc(C(=O)N2CCc3[nH]cnc3[C@H]2c2cc3c(F)cccn3n2)o1` [Example 1328, (S)-(4-(4-fluoropyrazolo[1,5-a]pyridin-2-yl)-6,7-dihydro-1H-imidazo[4,5-c]pyridin-5(4H)-yl)(5-(2-methylpyridin-3-yl)-1,3,4-oxadiazol-2-yl)methanone], the AC50 was less than 500 nM.

For `Cc1ncccc1-c1nnc(C(=O)N2CCc3[nH]cnc3[C@H]2c2cc3c(C)cccn3n2)o1` [Example 1330, (S)-(4-(4-methylpyrazolo[1,5-a]pyridin-2-yl)-6,7-dihydro-1H-imidazo[4,5-c]pyridin-5(4H)-yl)(5-(2-methylpyridin-3-yl)-1,3,4-oxadiazol-2-yl)methanone], the AC50 was less than 500 nM.

Turning to `Cc1ncccc1-c1nnc(C(=O)N2CCc3[nH]cnc3[C@@H]2c2cc3c(C)cccn3n2)o1` [Example 1331, (R)-(4-(4-methylpyrazolo[1,5-a]pyridin-2-yl)-6,7-dihydro-1H-imidazo[4,5-c]pyridin-5(4H)-yl)(5-(2-methylpyridin-3-yl)-1,3,4-oxadiazol-2-yl)methanone], the AC50 lay within 1000 to 5000 nM.

For the compound `Cc1ncccc1-c1nnc(C(=O)N2CCc3[nH]cnc3[C@H]2c2cc3cccc(Cl)n3n2)o1` [Example 1334, (S)-(4-(7-chloropyrazolo[1,5-a]pyridin-2-yl)-6,7-dihydro-1H-imidazo[4,5-c]pyridin-5(4H)-yl)(5-(2-methylpyridin-3-yl)-1,3,4-oxadiazol-2-yl)methanone], the AC50 was less than 500 nM.

Turning to `Cc1ncccc1-c1nnc(C(=O)N2CCc3[nH]cnc3[C@@H]2c2cc3cccc(Cl)n3n2)o1` [Example 1335, (R)-(4-(7-chloropyrazolo[1,5-a]pyridin-2-yl)-6,7-dihydro-1H-imidazo[4,5-c]pyridin-5(4H)-yl)(5-(2-methylpyridin-3-yl)-1,3,4-oxadiazol-2-yl)methanone], the AC50 was greater than 5000 nM.

`Cc1cccc2cc([C@H]3c4nc[nH]c4CCN3C(=O)c3nnc(-c4ncccn4)o3)nn12` [Example 1336, (R)-(4-(7-methylpyrazolo[1,5-a]pyridin-2-yl)-6,7-dihydro-1H-imidazo[4,5-c]pyridin-5(4H)-yl)(5-(pyrimidin-2-yl)-1,3,4-oxadiazol-2-yl)methanone]: the AC50 is 1000 to 5000 nM.

For `Cc1cccc2cc([C@@H]3c4nc[nH]c4CCN3C(=O)c3nnc(-c4ncccn4)o3)nn12` [Example 1337, (S)-(4-(7-methylpyrazolo[1,5-a]pyridin-2-yl)-6,7-dihydro-1H-imidazo[4,5-c]pyridin-5(4H)-yl)(5-(pyrimidin-2-yl)-1,3,4-oxadiazol-2-yl)methanone], the AC50 is 500 to 1000 nM.

`Cc1cccc2cc([C@H]3c4nc[nH]c4CCN3C(=O)c3nnc(-c4cnccn4)o3)nn12` [Example 1338, (R)-(4-(7-methylpyrazolo[1,5-a]pyridin-2-yl)-6,7-dihydro-1H-imidazo[4,5-c]pyridin-5(4H)-yl)(5-(pyrazin-2-yl)-1,3,4-oxadiazol-2-yl)methanone]: the AC50 is greater than 5000 nM.

As for `Cc1cccc2cc([C@@H]3c4nc[nH]c4CCN3C(=O)c3nnc(-c4cnccn4)o3)nn12` [Example 1339, (S)-(4-(7-methylpyrazolo[1,5-a]pyridin-2-yl)-6,7-dihydro-1H-imidazo[4,5-c]pyridin-5(4H)-yl)(5-(pyrazin-2-yl)-1,3,4-oxadiazol-2-yl)methanone], the AC50 was less than 500 nM.

In the case of `Cc1ncccc1-c1nnc(C(=O)N2CCc3[nH]cnc3[C@H]2c2cc3cccc(C(F)(F)F)n3n2)o1` [Example 1342, (S)-(5-(2-methylpyridin-3-yl)-1,3,4-oxadiazol-2-yl)(4-(7-(trifluoromethyl)pyrazolo[1,5-a]pyridin-2-yl)-6,7-dihydro-1H-imidazo[4,5-c]pyridin-5(4H)-yl)methanone], the AC50 fell in the range of 500 to 1000 nM.

Consider `Cc1ncccc1-c1nnc(C(=O)N2CCc3[nH]cnc3[C@@H]2c2cc3cccc(C(F)(F)F)n3n2)o1` [Example 1343, (R)-(5-(2-methylpyridin-3-yl)-1,3,4-oxadiazol-2-yl)(4-(7-(trifluoromethyl)pyrazolo[1,5-a]pyridin-2-yl)-6,7-dihydro-1H-imidazo[4,5-c]pyridin-5(4H)-yl)methanone], for which the AC50 fell in the range of 1000 to 5000 nM.

With `COc1ccc(-c2nnc(C(=O)N3CCc4[nH]cnc4[C@H]3c3cc4cccc(C(F)(F)F)n4n3)o2)cn1` [Example 1344, (S)-(5-(6-methoxypyridin-3-yl)-1,3,4-oxadiazol-2-yl)(4-(7-(trifluoromethyl)pyrazolo[1,5-a]pyridin-2-yl)-6,7-dihydro-1H-imidazo[4,5-c]pyridin-5(4H)-yl)methanone], the AC50 is 1000 to 5000 nM.

For the compound `COc1ccc(-c2nnc(C(=O)N3CCc4[nH]cnc4[C@@H]3c3cc4cccc(C(F)(F)F)n4n3)o2)cn1` [Example 1345, (R)-(5-(6-methoxypyridin-3-yl)-1,3,4-oxadiazol-2-yl)(4-(7-(trifluoromethyl)pyrazolo[1,5-a]pyridin-2-yl)-6,7-dihydro-1H-imidazo[4,5-c]pyridin-5(4H)-yl)methanone], the AC50 was in the range of 1000 to 5000 nM.

With `O=C(c1nnc(-c2cccnc2)o1)N1CCc2[nH]cnc2[C@@H]1c1cc2ccccn2n1` [Example 1347, (R)-(4-(pyrazolo[1,5-a]pyridin-2-yl)-6,7-dihydro-1H-imidazo[4,5-c]pyridin-5(4H)-yl)(5-(pyridin-3-yl)-1,3,4-oxadiazol-2-yl)methanone], the AC50 was 1000 to 5000 nM.
